# Experiments:
# Escherichia coli [1] = assay: Antimicrobial activity against Escherichia coli JW55031 TolC mutant assessed as reduction in microbial growth incubated for 18 to 20 hrs by broth microdilution method
# Vero = assay: Cytotoxicity against African green monkey Vero cells assessed as reduction in cell viability incubated for 2 hrs by MTS assay; type: cell-based; settings: chlorocebus sabaeus
# Caco-2 = assay: Cytotoxicity against human Caco-2 cells assessed as reduction in cell viability incubated for 2 hrs by MTS assay; type: cell-based; settings: caco-2, 2 h
# Pseudomonas aeruginosa [2] = assay: Antibacterial activity against Pseudomonas aeruginosa ATCC 15442 incubated for 18 to 20 hrs by broth microdilution method; type: functional; settings: time 18-20 hrs
# Escherichia coli [3] = assay: Synergistic antibacterial activity against Escherichia coli ATCC 25922 in presence of 0.25 times MIC of colistin incubated for 18 to 20 hrs by broth microdilution method; type: functional; settings: time 18-20 hrs
# Escherichia coli [4] = assay: Antibacterial activity against Escherichia coli ATCC 25922 incubated for 18 to 20 hrs by broth microdilution method; type: functional; settings: time 18-20 hrs
# Escherichia coli [5] = assay: Synergistic antibacterial activity against wild type Escherichia coli BW25113 in presence of 0.25 times MIC of colistin incubated for 18 to 20 hrs by broth microdilution method; type: functional; settings: time 18-20 hrs
# Pseudomonas aeruginosa [6] = assay: Synergistic antibacterial activity against Pseudomonas aeruginosa ATCC 15442 in presence of 0.25 times MIC of colistin incubated for 18 to 20 hrs by broth microdilution method; type: functional; settings: time 18-20 hrs
# Klebsiella pneumoniae [7] = assay: Synergistic antibacterial activity against Klebsiella pneumoniae ATCC 1706 in presence of 0.25 times MIC of colistin incubated for 18 to 20 hrs by broth microdilution method; type: functional; settings: time 18-20 hrs
# Klebsiella pneumoniae [8] = assay: Antibacterial activity against Klebsiella pneumoniae ATCC 1706 incubated for 18 to 20 hrs by broth microdilution method; type: functional; settings: time 18-20 hrs
# Acinetobacter baumannii [9] = assay: Synergistic antibacterial activity against Acinetobacter baumannii ATCC 19606 in presence of 0.25 times MIC of colistin incubated for 18 to 20 hrs by broth microdilution method; type: functional; settings: time 18-20 hrs
# Acinetobacter baumannii [10] = assay: Antibacterial activity against Acinetobacter baumannii ATCC 19606 incubated for 18 to 20 hrs by broth microdilution method; type: functional; settings: time 18-20 hrs
# Escherichia coli [11] = assay: Antibacterial activity against wild type Escherichia coli BW25113 incubated for 18 to 20 hrs by broth microdilution method; type: functional; settings: time 18-20 hrs
structure (smiles),measurement,setting,value
CS(=O)(=O)Nc1cccc(-c2nc3ccccc3n2Cc2ccc(Cl)c(Cl)c2)c1,MIC,Escherichia coli [1],8 µg/mL
Cc1ccc(Cn2c(-c3ccccc3)nc3ccccc32)cc1,MIC,Escherichia coli [1],8 µg/mL
Nc1cccc(-c2nc3ccccc3n2Cc2ccc(C(F)(F)F)cc2)c1,MIC,Escherichia coli [1],8 µg/mL
Cc1cccc(Cn2c(-c3cccc(NS(C)(=O)=O)c3)nc3ccccc32)c1,MIC,Escherichia coli [1],16 µg/mL
Cc1ccc(Cn2c(-c3ccc(OC(F)(F)F)cc3)nc3ccccc32)cc1,MIC,Escherichia coli [1],> 128 µg/mL
Cc1ccc(Cn2c(-c3cccc(C(F)(F)F)c3)nc3ccccc32)cc1,MIC,Escherichia coli [1],> 128 µg/mL
FC(F)(F)c1ccc(Cn2c(-c3ccccc3)nc3ccccc32)cc1,MIC,Escherichia coli [1],8 µg/mL
CS(=O)(=O)Nc1cccc(-c2nc3ccccc3n2Cc2ccc(Cl)cc2Cl)c1,MIC,Escherichia coli [1],8 µg/mL
c1ccc(Cn2c(-c3ccccc3)nc3ccccc32)cc1,MIC,Escherichia coli [1],16 µg/mL
CS(=O)(=O)Nc1cccc(-c2nc3ccccc3n2Cc2ccc(Br)cc2)c1,MIC,Escherichia coli [1],4 µg/mL
Cc1ccc(Cn2c(-c3cccc(NS(C)(=O)=O)c3)nc3ccccc32)cc1,Activity,Vero,Non-Toxic
same,Activity,Caco-2,Non-Toxic
same,MIC,Pseudomonas aeruginosa [2],> 128 µg/mL
same,MIC,Escherichia coli [3],16 µg/mL
same,MIC,Escherichia coli [4],> 128 µg/mL
same,MIC,Escherichia coli [5],16 µg/mL
same,MIC,Pseudomonas aeruginosa [6],16 µg/mL
same,MIC,Klebsiella pneumoniae [7],8 µg/mL
same,MIC,Klebsiella pneumoniae [8],> 128 µg/mL
same,MIC,Escherichia coli [1],2 µg/mL
same,MIC,Acinetobacter baumannii [9],8 µg/mL
same,MIC,Acinetobacter baumannii [10],> 128 µg/mL
same,MIC,Escherichia coli [11],> 128 µg/mL
Cc1ccc(Cn2c(-c3ccc(Cl)cc3)nc3ccccc32)cc1,MIC,Escherichia coli [1],> 128 µg/mL
CS(=O)(=O)Nc1cccc(-c2nc3ccccc3n2Cc2ccc(F)cc2)c1,MIC,Escherichia coli [1],32 µg/mL
CS(=O)(=O)Nc1cccc(-c2nc3ccccc3n2Cc2cccc(F)c2)c1,MIC,Escherichia coli [1],64 µg/mL
CS(=O)(=O)Nc1cccc(-c2nc3ccccc3n2Cc2cccc(C#N)c2)c1,MIC,Escherichia coli [1],> 128 µg/mL
CS(=O)(=O)Nc1cccc(-c2nc3ccccc3n2Cc2ccccc2)c1,MIC,Escherichia coli [1],16 µg/mL
CS(=O)(=O)Nc1cccc(-c2nc3ccccc3n2Cc2ccc(C#N)cc2)c1,MIC,Escherichia coli [1],64 µg/mL
Nc1cccc(-c2nc3ccccc3n2Cc2ccc(Cl)c(Cl)c2)c1,MIC,Escherichia coli [1],4 µg/mL
Cc1ccc(Cn2c(-c3cccc(N)c3)nc3ccccc32)cc1,MIC,Escherichia coli [1],4 µg/mL
Cc1ccc(Cn2c(-c3ccc(C#N)cc3)nc3ccccc32)cc1,MIC,Escherichia coli [1],> 128 µg/mL
CC(=O)NC[C@H]1CN(c2ccc(N3CCOCC3)c(F)c2)C(=O)O1 [LINEZOLID],MIC,Pseudomonas aeruginosa [2],> 128 µg/mL
same,MIC,Escherichia coli [3],128 µg/mL
same,MIC,Escherichia coli [4],128 µg/mL
same,MIC,Escherichia coli [5],128 µg/mL
same,MIC,Pseudomonas aeruginosa [6],> 128 µg/mL
same,MIC,Klebsiella pneumoniae [7],> 128 µg/mL
same,MIC,Klebsiella pneumoniae [8],> 128 µg/mL
same,MIC,Escherichia coli [1],8 µg/mL
same,MIC,Acinetobacter baumannii [9],> 128 µg/mL
same,MIC,Acinetobacter baumannii [10],> 128 µg/mL
same,MIC,Escherichia coli [11],128 µg/mL
Cc1ccc(Cn2c(-c3ccc(C(F)(F)F)cc3)nc3ccccc32)cc1,MIC,Escherichia coli [1],128 µg/mL
CC[C@H]1OC(=O)[C@H](C)[C@@H](O[C@H]2C[C@@](C)(OC)[C@@H](O)[C@H](C)O2)[C@H](C)[C@@H](O[C@@H]2O[C@H](C)C[C@H](N(C)C)[C@H]2O)[C@](C)(O)C[C@@H](C)C(=O)[C@H](C)[C@@H](O)[C@]1(C)O [ERYTHROMYCIN],MIC,Pseudomonas aeruginosa [2],64 µg/mL
same,MIC,Escherichia coli [3],1 µg/mL
same,MIC,Escherichia coli [4],16 µg/mL
same,MIC,Escherichia coli [5],1 µg/mL
same,MIC,Pseudomonas aeruginosa [6],2 µg/mL
same,MIC,Klebsiella pneumoniae [7],2 µg/mL
same,MIC,Klebsiella pneumoniae [8],64 µg/mL
same,MIC,Acinetobacter baumannii [9],0.5 µg/mL
same,MIC,Acinetobacter baumannii [10],16 µg/mL
same,MIC,Escherichia coli [11],16 µg/mL
CS(=O)(=O)Nc1cccc(-c2nc3ccccc3n2Cc2ccc(OC(F)(F)F)cc2)c1,MIC,Escherichia coli [1],> 128 µg/mL
Cc1ccc(Cn2c(-c3cccc([N+](=O)[O-])c3)nc3ccccc32)cc1,MIC,Escherichia coli [1],> 128 µg/mL
Cc1ccc(Cn2c(-c3ccc(NS(C)(=O)=O)cc3)nc3ccccc32)cc1,MIC,Escherichia coli [1],> 128 µg/mL
CS(=O)(=O)Nc1cccc(-c2nc3ccccc3n2Cc2cccc3ccccc23)c1,MIC,Escherichia coli [1],> 128 µg/mL
CS(=O)(=O)Nc1cccc(-c2nc3ccccc3n2Cc2cccc(Cl)c2)c1,MIC,Escherichia coli [1],16 µg/mL
COc1ccc(-c2nc3ccccc3n2Cc2ccc(C)cc2)cc1,MIC,Escherichia coli [1],> 128 µg/mL
CS(=O)(=O)Nc1cccc(-c2nc3ccccc3n2Cc2ccc(C(F)(F)F)cc2)c1,MIC,Escherichia coli [1],16 µg/mL
CC(=O)Nc1cccc(-c2nc3ccccc3n2Cc2ccc(Cl)cc2)c1,MIC,Escherichia coli [1],> 128 µg/mL
CS(=O)(=O)Nc1cccc(-c2nc3ccccc3n2Cc2ccc(Cl)cc2)c1,MIC,Escherichia coli [1],8 µg/mL
Cc1ccc(Cn2c(-c3cccc(C#N)c3)nc3ccccc32)cc1,MIC,Escherichia coli [1],16 µg/mL
CCCCCCCCCC(=O)N[C@@H](Cc1c[nH]c2ccccc12)C(=O)N[C@H](CC(N)=O)C(=O)N[C@@H](CC(=O)O)C(=O)N[C@@H]1C(=O)NCC(=O)N[C@@H](CCCN)C(=O)N[C@@H](CC(=O)O)C(=O)N[C@H](C)C(=O)N[C@@H](CC(=O)O)C(=O)NCC(=O)N[C@H](CO)C(=O)N[C@@H]([C@H](C)CC(=O)O)C(=O)N[C@@H](CC(=O)c2ccccc2N)C(=O)O[C@@H]1C,MIC,Pseudomonas aeruginosa [2],> 128 µg/mL
same,MIC,Escherichia coli [3],> 128 µg/mL
same,MIC,Escherichia coli [4],> 128 µg/mL
same,MIC,Escherichia coli [5],> 128 µg/mL
same,MIC,Pseudomonas aeruginosa [6],> 128 µg/mL
same,MIC,Klebsiella pneumoniae [7],> 128 µg/mL
same,MIC,Klebsiella pneumoniae [8],> 128 µg/mL
same,MIC,Acinetobacter baumannii [9],> 128 µg/mL
same,MIC,Acinetobacter baumannii [10],> 128 µg/mL
same,MIC,Escherichia coli [11],> 128 µg/mL
CC(=O)Nc1cccc(-c2nc3ccccc3n2Cc2ccc(C)cc2)c1,MIC,Escherichia coli [1],> 128 µg/mL
CS(=O)(=O)Nc1cccc(-c2nc3ccccc3n2CC2CCCCC2)c1,MIC,Escherichia coli [1],16 µg/mL

# — ChEMBL document CHEMBL4680116, “Development of benzimidazole-based derivatives as antimicrobial agents and their synergistic effect with colistin against gram-negative bacteria” (Eur J Med Chem, 2020)
